Patent publication US20050112573A1, “Method of detecting toxic substance” (priority 2001, published 2005)

Tested on: yeast genes (level of expressed mRNA)
Test: DNA chip analysis of expressed mRNA of yeast genes after 2 h culture with a toxic chemical substance
Type: cell-based, Saccharomyces cerevisiae S288C
Conditions: for The level of expressed mRNA in the presence of chemical substance/ (ratio to absence of chemical substance): stress protein genes, DNA chip
Description: Yeast (Saccharomyces cerevtisiae S288C (α SUC2mal mel gap2 CUP1)) were cultured at 25° C. on YPD medium (yeast extract 1%, polypepton 2%, glucose 2%). One of toxic chemical substances was added to the cell at logarithmic growth phase, and the cell was further cultured for two hours. Cell was cultured without any chemical substance in the same condition, and was used as control. Concentrations of the chemical substances were defined to inhibit the growth of the yeast but not lead to death.
After the completion of cultivation, the culture was centrifuged to collect the cells. To the cells, sodium acetate buffer (50 mM sodium acetate, 10 mM EDTA, 1% SDS) was added, and the mixture was shaken at 65° C. for five minutes, followed by returning to room temperature, and obtaining the supernatant, which procedure was repeated two times. To the supernatant, ½ amount of a solution of phenol/chloroform was added, and the mixture was centrifuged to give a supernatant, which was added with an equal amount of chloroform, and the mixture was centrifuged to give a supernatant. To the supernatant, an equal amount of isopropanol containing 0.3 M sodium acetate was added, and the mixture was allowed to stand at room temperature for 30 minutes, after which the mixture was centrifuged to give a sediment of the whole RNAs. Seventy % ethanol was added to the sediment, and the mixture was again centrifuged to give a sediment, which was then dried and dissolved in water. mRNA was isolated from the whole RNAs as followings. In view of the fact that a poly A chain is attached to the 3′ terminus of mRNA, a polynucleotide having a poly T structure which was immobilized on the surface of latex beads was used to trap the mRNA, and then the mRNA was washed and eluted with spine column (Oligotex-dT30<Super>mRNA Purification Kit, Takara). Reverse transcription of the mRNA was conducted with a reverse transcriptase (Super Script II Reverse Transcriptase; catalogue No. 18064-014, GibcoBRL) using fluorescence-labeled nucleotides to give cDNAs that were introduced with Cy3-dUTP or Cy5-dUTP during the reverse transcription.
The labeled cDNAs were dissolved in TE buffer (10 mM Tris-HCl/1 mM EDTA, pH8.0), and the solution was dropped on the DNA chip containing the whole genes of yeast (DNA Chip Research Inc. Japan) so that the cDNAs were hybridized on the DNA chip at 65° C. for over 12 hours. The fluoresces intensity of the DNA chip was read with a scanner, and the ratio relative to the fluorescence intensity resulting from the absence of chemical substance was estimated as the following, which is shown in Tables 1 to 9: [formula]
In the Tables, “Intensity” indicated in the rightmost column is a value of the level of expressed mRNA of each gene in control cells as divided by the average level of the expressions of the whole genes.

COc1cc(CNC(=O)CCCCC=CC(C)C)ccc1O [(12), 8-methyl-N-vanillyl-6-nonenamide]
0.5: The level of expressed mRNA in the presence of chemical substance/ (in its absence), gene YHR210C (yeast gene YHR210C, ratio of DNA chip fluorescence intensity to that without chemical substance)
1.4: The level of expressed mRNA in the presence of chemical substance/The level of expressed mRNA in the absence of chemical substance (yeast gene YDR510W)
0.4: The level of expressed mRNA in the presence of chemical substance/The level of expressed mRNA in the absence of chemical substance (yeast gene YFR015C, two hours culture)
2.6: The level of expressed mRNA in the presence of chemical substance/The level of expressed mRNA in the absence of chemical substance (yeast gene YHL047C)
0.6: The level of expressed mRNA in the presence of chemical substance/The level of expressed mRNA in the absence of chemical substance (yeast gene YDR315C) | The level of expressed mRNA in the presence of chemical substance/ (ratio to absence of chemical substance) (yeast gene YEL039C) | The level of expressed mRNA in the presence of chemical substance/ (ratio to absence of chemical substance) (yeast gene YIL011W)
0.7: The level of expressed mRNA in the presence of chemical substance/The level of expressed mRNA in the absence of chemical substance (yeast gene YDR084C) | The level of expressed mRNA in the presence of chemical substance/The level of expressed mRNA in the absence of chemical substance (yeast gene YDR432W) | The level of expressed mRNA in the presence of chemical substance/The level of expressed mRNA in the absence of chemical substance (yeast gene YER107C)
0.9: The level of expressed mRNA in the presence of chemical substance/The level of expressed mRNA in the absence of chemical substance (yeast gene YDR115W) | The level of expressed mRNA in the presence of chemical substance/ (ratio to absence), gene YDR377W (yeast gene YDR377W, mitochondria-located protein genes, 2 h culture with chemical) | The level of expressed mRNA in the presence of chemical substance/ (in its absence), gene YDR387C (yeast gene YDR387C, ratio of DNA chip fluorescence intensity to that without chemical substance) | The level of expressed mRNA in the presence of chemical substance/The level of expressed mRNA in the absence of chemical substance (yeast gene YDR481C) | The level of expressed mRNA in the presence of chemical substance/ (in its absence), gene YER015W (yeast gene YER015W, ratio of DNA chip fluorescence intensity to that without chemical substance) | The level of expressed mRNA in the presence of chemical substance/The level of expressed mRNA in the absence of chemical substance (yeast gene YER039C) | The level of expressed mRNA in the presence of chemical substance/The level of expressed mRNA in the absence of chemical substance (yeast gene YFL043C) | The level of expressed mRNA in the presence of chemical substance/ (in its absence), gene YGL035C (yeast gene YGL035C, ratio of DNA chip fluorescence intensity to that without chemical substance) | The level of expressed mRNA in the presence of chemical substance/ (in its absence), gene YGL115W (yeast gene YGL115W, ratio of DNA chip fluorescence intensity to that without chemical substance) | The level of expressed mRNA in the presence of chemical substance/ (ratio to absence of chemical substance) (yeast gene YGL115W) | The level of expressed mRNA in the presence of chemical substance/The level of expressed mRNA in the absence of chemical substance (yeast gene YGR257C) | The level of expressed mRNA in the presence of chemical substance/ (in its absence), gene YGR288W (yeast gene YGR288W, ratio of DNA chip fluorescence intensity to that without chemical substance) | The level of expressed mRNA in the presence of chemical substance/The level of expressed mRNA in the absence of chemical substance (yeast gene YHR004C) | The level of expressed mRNA in the presence of chemical substance/ (in its absence), gene YIL006W (yeast gene YIL006W, ratio of DNA chip fluorescence intensity to that without chemical substance)
3.9: The level of expressed mRNA in the presence of chemical substance/The level of expressed mRNA in the absence of chemical substance (yeast gene YDR406W)
2.4: The level of expressed mRNA in the presence of chemical substance/The level of expressed mRNA in the absence of chemical substance (yeast gene YGR281W)
1.3: The level of expressed mRNA in the presence of chemical substance/The level of expressed mRNA in the absence of chemical substance (yeast gene YGL158W) | The level of expressed mRNA in the presence of chemical substance/The level of expressed mRNA in the absence of chemical substance (yeast gene YGR189C) | The level of expressed mRNA in the presence of chemical substance/The level of expressed mRNA in the absence of chemical substance (yeast gene YHR142W)
0.8: The level of expressed mRNA in the presence of chemical substance/ (in its absence), gene YDR073W (yeast gene YDR073W, ratio of DNA chip fluorescence intensity to that without chemical substance) | The level of expressed mRNA in the presence of chemical substance/The level of expressed mRNA in the absence of chemical substance (yeast gene YDR388W) | The level of expressed mRNA in the presence of chemical substance/The level of expressed mRNA in the absence of chemical substance (yeast gene YEL066W) | The level of expressed mRNA in the presence of chemical substance/ (ratio to absence), gene YGL187C (yeast gene YGL187C, mitochondria-located protein genes, 2 h culture with chemical) | The level of expressed mRNA in the presence of chemical substance/ (in its absence), gene YGR096W (yeast gene YGR096W, ratio of DNA chip fluorescence intensity to that without chemical substance) | The level of expressed mRNA in the presence of chemical substance/The level of expressed mRNA in the absence of chemical substance (yeast gene YHR071W)
1.6: The level of expressed mRNA in the presence of chemical substance/The level of expressed mRNA in the absence of chemical substance (yeast gene YDR085C) | The level of expressed mRNA in the presence of chemical substance/The level of expressed mRNA in the absence of chemical substance (yeast gene YHR139C)
10.6: The level of expressed mRNA in the presence of chemical substance/The level of expressed mRNA in the absence of chemical substance (yeast gene YGR213C)
1.0: The level of expressed mRNA in the presence of chemical substance/The level of expressed mRNA in the absence of chemical substance (yeast gene YDR259C) | The level of expressed mRNA in the presence of chemical substance/ (in its absence), gene YDR297W (yeast gene YDR297W, ratio of DNA chip fluorescence intensity to that without chemical substance) | The level of expressed mRNA in the presence of chemical substance/The level of expressed mRNA in the absence of chemical substance (yeast gene YEL042W) | The level of expressed mRNA in the presence of chemical substance/The level of expressed mRNA in the absence of chemical substance (yeast gene YER130C) | The level of expressed mRNA in the presence of chemical substance/ in its absence, gene YGR062C (yeast gene YGR062C, energy system protein genes, 2 h culture with the chemical, ratio to control without chemical) | The level of expressed mRNA in the presence of chemical substance/ (ratio to absence), gene YGR062C (yeast gene YGR062C, mitochondria-located protein genes, 2 h culture with chemical)
2.0: The level of expressed mRNA in the presence of chemical substance/The level of expressed mRNA in the absence of chemical substance (yeast gene YGR008C, two hours culture)
1.2: The level of expressed mRNA in the presence of chemical substance/The level of expressed mRNA in the absence of chemical substance (yeast gene YGR136W)
1.1: The level of expressed mRNA in the presence of chemical substance/ in its absence, gene YDR079W (yeast gene YDR079W, energy system protein genes, 2 h culture with the chemical, ratio to control without chemical) | The level of expressed mRNA in the presence of chemical substance/ (ratio to absence), gene YDR079W (yeast gene YDR079W, mitochondria-located protein genes, 2 h culture with chemical) | The level of expressed mRNA in the presence of chemical substance/The level of expressed mRNA in the absence of chemical substance (yeast gene YDR104C) | The level of expressed mRNA in the presence of chemical substance/The level of expressed mRNA in the absence of chemical substance (yeast gene YDR358W) | The level of expressed mRNA in the presence of chemical substance/The level of expressed mRNA in the absence of chemical substance (yeast gene YFL028C) | The level of expressed mRNA in the presence of chemical substance/ (in its absence), gene YGL205W (yeast gene YGL205W, ratio of DNA chip fluorescence intensity to that without chemical substance) | The level of expressed mRNA in the presence of chemical substance/The level of expressed mRNA in the absence of chemical substance (yeast gene YGL229C) | The level of expressed mRNA in the presence of chemical substance/ (in its absence), gene YGR287C (yeast gene YGR287C, ratio of DNA chip fluorescence intensity to that without chemical substance) | The level of expressed mRNA in the presence of chemical substance/ (ratio to absence of chemical substance) (yeast gene YHL046C)
1.5: The level of expressed mRNA in the presence of chemical substance/ (ratio to absence of chemical substance) (yeast gene YER057C) | The level of expressed mRNA in the presence of chemical substance/The level of expressed mRNA in the absence of chemical substance (yeast gene YFR024C) | The level of expressed mRNA in the presence of chemical substance/ (ratio to absence of chemical substance) (yeast gene YHL028W)
